According to patent US20140155406A1, “4-IMIDAZOPYRIDAZIN-1-YL-BENZAMIDES AND 4-IMIDAZOTRIAZIN-1-YL-BENZAMIDES BTK INHIBITORS” (priority 2011, published 2014):

Assays:
[1] = target: T1, Btk enzyme (His-Btk) (Homo sapiens, UniProt Q06187); assay: Btk enzyme activity, IMAP fluorescence polarization assay; format: biochemical; conditions: 60 min pre-incubation, 5 μM ATP (Km); bin bounds given in nM
T1 construct: His; purchased Millipore 14-552
Text: Inhibition of kinase activity can be measured using the Immobilized Metal Assay for Phosphochemicals (IMAP) assay. IMAP is a homogeneous fluorescence polarization (FP) assay based on affinity capture of phosphorylated peptide substrates. IMAP uses fluorescein-labeled peptide substrates that, upon phosphorylation by a protein kinase, bind to so-called IMAP nanoparticles, which are derivatized with trivalent metal complexes. Binding causes a change in the rate of the molecular motion of the peptide, and results in an increase in the FP value observed for the fluorescein label attached to the substrate peptide (Gaudet et al. A homogeneous fluorescence polarization assay adaptable for a range of protein serine/threonine and tyrosine kinases. J. Biomol. Screen (2003) 8, 164-175).
Btk enzyme activity is measured using the IMAP (immobilized metal ion affinity-based fluorescence polarization) assay as outlined below.
Btk enzyme (His-Btk (Millipore catalog#14-552), is diluted to 0.4 U/mL in KR buffer (10 mM Tris-HCl, 10 mM MgCl2, 0.01% Tween-20, 0.05% NaN3, 1 mM DTT, 2 mM MnCl2, pH 7.2).
Serial dilution log 10 from 2 mM to 63.2 nM of test compounds are made in 100% DMSO. The dilutions in DMSO are then diluted 50-fold in KR-buffer. Final compound concentration range in the assay from 10 μM to 0.316 nM.
5 μL/well of test compound in KR buffer (final DMSO concentration in the assay is 1%) is mixed with 5 μl/well of 0.4 U/mL Btk enzyme (final concentration in the assay is 0.1 U/mL). Test compounds and Btk enzyme are pre-incubated 60 minutes at room temperature, before adding 5 μL/well of 200 nM Fluorescin labeled substrate peptide (Blk/Lyntide substrate, e.g. #R7188/#R7233, Molecular Devices) in KR-buffer. Final peptide substrate concentration in assay is 50 nM. The kinase assay is started by adding 5 μL/well of 20 μM ATP in KR-buffer (final ATP concentration is 5 μM ATP, Km ATP in Btk IMAP assay). Following incubation for 2 h at room temperature the enzyme reaction is stopped by adding 40 μL/well IMAP Progressive Binding Solution (according to suppliers (Molecular Devices) protocol using 75% 1× buffer A and 25% 1× buffer B with 1:600 Progressive Binding Solution). After 60 min incubation at room temperature in the dark the FP signal is read. Fluorescence at 535 nm is measured using parallel and perpendicular filters to determine differences in rotation due to binding of the phosphorylated substrate peptide to the beads. Values are calculated as percentage of the difference in readout (ΔmPi) of the controls with and without ATP. EC50 values are determined by curve fitting of the experimental results using Activity Base.

[2] = target: T2, FynT enzyme (Homo sapiens, UniProt P06241); assay: FynT enzyme activity, IMAP fluorescence polarization assay; format: biochemical; conditions: 60 min pre-incubation, 0.2 μM ATP (Km)
T2 construct: purchased Biomol SE-287
T2 sequence (P06241 1-534 isoform P06241-2): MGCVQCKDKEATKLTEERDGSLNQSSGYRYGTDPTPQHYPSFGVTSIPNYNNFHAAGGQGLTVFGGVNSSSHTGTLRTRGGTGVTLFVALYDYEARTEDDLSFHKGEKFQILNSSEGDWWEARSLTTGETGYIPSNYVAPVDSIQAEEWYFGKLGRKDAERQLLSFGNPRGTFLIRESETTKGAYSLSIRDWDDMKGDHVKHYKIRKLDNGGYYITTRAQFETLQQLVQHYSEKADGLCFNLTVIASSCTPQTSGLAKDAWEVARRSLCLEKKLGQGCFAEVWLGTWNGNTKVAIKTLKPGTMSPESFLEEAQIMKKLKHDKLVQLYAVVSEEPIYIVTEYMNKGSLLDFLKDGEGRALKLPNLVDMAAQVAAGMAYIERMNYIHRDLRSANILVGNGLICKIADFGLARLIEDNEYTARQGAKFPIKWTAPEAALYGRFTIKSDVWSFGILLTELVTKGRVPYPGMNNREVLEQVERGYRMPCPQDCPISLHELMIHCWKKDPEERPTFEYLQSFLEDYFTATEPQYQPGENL
In short: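 FynT (125 ng/mL final) pre-incubated 60 min at RT with compound (10 μM–0.316 nM, 1% DMSO) in pH 7.2 Tris/Mg/Mn buffer, then 100 nM fluorescein p34cdc2 peptide and 0.2 μM ATP (Km) for 2 h at RT. IMAP binding FP read at 535 nm; EC50 from curve fit versus ±ATP controls.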

T1 sequence (Q06187 whole entry): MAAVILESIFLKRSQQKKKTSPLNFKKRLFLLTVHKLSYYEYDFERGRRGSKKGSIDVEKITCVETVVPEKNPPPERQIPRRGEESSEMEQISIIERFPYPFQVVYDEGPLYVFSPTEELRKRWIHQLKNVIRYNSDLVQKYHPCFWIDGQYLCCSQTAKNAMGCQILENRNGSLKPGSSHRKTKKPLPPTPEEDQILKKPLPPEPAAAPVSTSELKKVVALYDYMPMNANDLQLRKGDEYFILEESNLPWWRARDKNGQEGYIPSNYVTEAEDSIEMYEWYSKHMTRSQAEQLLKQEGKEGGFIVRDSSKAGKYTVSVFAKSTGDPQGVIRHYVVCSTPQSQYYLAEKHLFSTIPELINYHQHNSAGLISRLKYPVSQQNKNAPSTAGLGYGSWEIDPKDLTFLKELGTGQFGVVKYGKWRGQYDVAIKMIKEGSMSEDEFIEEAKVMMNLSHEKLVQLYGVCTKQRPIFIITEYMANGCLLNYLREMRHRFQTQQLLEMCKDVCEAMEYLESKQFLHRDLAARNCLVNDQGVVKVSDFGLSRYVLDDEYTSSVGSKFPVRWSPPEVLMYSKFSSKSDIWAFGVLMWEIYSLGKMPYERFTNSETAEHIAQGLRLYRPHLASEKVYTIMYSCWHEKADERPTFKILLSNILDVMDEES

| Structure (SMILES) | EC50 [1] [nM] | EC50 [2] [nM] |
| --- | --- | --- |
| COC/C=C/C(=O)N[C@@H](C)c1nc(-c2ccc(C(=O)Nc3cc(C(F)(F)F)ccn3)cc2)c2c(C)nccn12 [Example 6, (S,E)-4-(3-(1-(4-Methoxybut-2-enamido)ethyl)-8-methylimidazo[1,5-a]pyrazin-1-yl)-N-(4-(trifluoromethyl)pyridin-2-yl)benzamide] | < 10 | ≥ 1000 |
| CCCc1ccnc(NC(=O)c2ccc(-c3nc([C@@H]4CCCCN4C(=O)/C=C/CN4CCCC4)n4ccnc(C)c34)cc2)c1 [Example 35, (S,E)-4-(8-methyl-3-(1-(4-(pyrrolidin-1-yl)but-2-enoyl)piperidin-2-yl)imidazo[1,5-a]pyrazin-1-yl)-N-(4-propylpyridin-2-yl)benzamide] | < 10 | ≥ 1000 |
| C=CC(=O)N1CCC[C@H]1c1nc(-c2ccc(C(=O)Nc3ccccn3)cc2)c2c(C)nccn12 [Example 19, (S)-4-(3-(1-acryloylpyrrolidin-2-yl)-8-methylimidazo[1,5-a]pyrazin-1-yl)-N-(pyridin-2-yl)benzamide] | < 10 | ≥ 1000 |
| C=CC(=O)N1CCC[C@H]1c1nc(-c2ccc(C(=O)Nc3cc(CCC)ccn3)cc2)c2c(C)nccn12 [Example 9, (S)-4-(3-(1-Acryloylpyrrolidin-2-yl)-8-methylimidazo[1,5-a]pyrazin-1-yl)-N-(4-propylpyridin-2-yl)benzamide] | < 10 | ≥ 1000 |
| CC#CC(=O)N1CCCC[C@H]1c1nc(-c2ccc(C(=O)Nc3cc(C(F)(F)F)ccn3)cc2)c2c(C)nccn12 [Example 29, (S)-4-(3-(1-but-2-ynoylpiperidin-2-yl)-8-methylimidazo[1,5-a]pyrazin-1-yl)-N-(4-(trifluoromethyl)pyridin-2-yl)benzamide] | < 10 | ≥ 1000 |
